The values below come from US20040014143A1, “Method and apparatus for detecting and monitoring peptides, and peptides identified therewith” (priority 2002, published 2004).

Read-outs that look alike come from different tables or passages of the source.

One test relates to GABA production. To be noted: previous microdialysis studies; cited from earlier work.
The next test relates to opioid receptors. Nature of the test: Receptor assays probing binding to opioid receptors. To be noted: data not shown.
Test [1] deals with neurotransmitter levels (aspartate, GABA, glutamate). The note with it: infusion of 10 μM peptide into the dialysis probe, n=2.

Take `CN1CCc2cccc3c2[C@H]1Cc1ccc(O)c(O)c1-3` [apomorphine]: in the test with GABA production, the “effect on GABA production” value is “stimulates GABA production” and the glutamate levels entry is listed as “remain the same”.

In the case of “SPQLEDEAKE (listed as Rattus norvegicus) [peptide I1-10]”, the “binding to opioid receptors” value in the test on opioid receptors was “negative”. In addition, in test [1], the “GABA level (change in words)” value is reported as “increase”, the “aspartate level (change in words)” value is listed as “increase” and the “glutamate levels (change in words)” value is recorded as “remained the same”. For the same molecule, in test [1] (listed as I11lo peptide), the “GABA level (change in words)” value is “increases” and the “aspartate level (change in words)” value is recorded as “increases”.

On to YGGFL [Leu-enkephalin], for which the “effect on GABA production” value in the test with GABA production is listed as “inhibits nicotine-stimulated GABA production”.
